[NH3+]C1CCCCC1.[S-]c1nc2ccccc2s1
solubility (mole fraction)
Conditions	303.15 K	308.15 K	313.15 K	318.15 K	323.15 K	328.15 K	333.15 K	338.15 K	343.15 K	348.15 K
in 1,4-dioxane	0.000208	0.000291	0.000418	0.000608	0.000793	0.00105	0.00141	0.00169	0.00217	0.00266
in MIBK	0.000389	0.000506	0.000672	0.00085	0.00111	0.00141	0.00177	0.00215	0.00252	0.00306
in toluene	2e-05	4.26e-05	5.64e-05	6.78e-05	8.02e-05	0.000121	0.000175	0.00026	0.000344	0.000421
in water	1.32e-05	1.95e-05	2.59e-05	3.24e-05	4e-05	5.4e-05	7.55e-05	8.97e-05	0.000124	0.000164

— BigSolDB 2.1
